From patent US8703701B2 (Indiana University Research and Technology Corporation, priority 2009, dated 2014)
Starred links: 1 amine or outer side, 2 acyl side, 3 side chain; linkers in the order of their positions; H or OH if unused. Non-standard residues stand in square brackets, D forms with d. Residues, ends and D or L forms follow the SMILES beside them. Groups on a side chain read outwards from the residue. *: point of attachment. γGlu = O=C(O)[C@H](CCC(=O)[*:2])N[*:1]; Palmitoyl = CCCCCCCCCCCCCCCC(=O)*; Aib = CC(C)(N)C(=O)O

Legend:
[1] = target: T1, glucagon receptor (Homo sapiens, UniProt P47871); assay: cAMP induction, firefly luciferase reporter assay, glucagon receptor; format: cell-based; settings: for Activity at Glucagon Receptor % Relative Activity: compared to native glucagon
T1 construct: expressed in transfected cells; host or cells: HEK293
Experimental: (§1) The ability of each peptide to induce cAMP was measured in a firefly luciferase-based reporter assay.
(§2) At the end of the incubation, 100 μL of LucLite luminescence substrate reagent (Perkin Elmer, Wellesley, Mass.) were added to each well. The plate was shaken briefly, incubated 10 min in the dark and light output was measured on MicroBeta-1450 liquid scintillation counter (Perkin-Elmer, Wellesley, Mass.).

[2] = target: T2, GLP-1 receptor (Homo sapiens, UniProt P43220); assay: cAMP induction, firefly luciferase reporter assay, GLP-1 receptor; format: cell-based; settings: for Activity at GLP-1 Receptor % Relative Activity: compared to native GLP-1
T2 construct: expressed in transfected cells; host or cells: HEK293
Experimental: as §1, §2

[3] = Activity at GLP-1 Receptor EC50 [pM], Table 3A
[4] = Activity at Glucagon Receptor EC50 [pM], Table 3A

T1 sequence (P47871 26-477): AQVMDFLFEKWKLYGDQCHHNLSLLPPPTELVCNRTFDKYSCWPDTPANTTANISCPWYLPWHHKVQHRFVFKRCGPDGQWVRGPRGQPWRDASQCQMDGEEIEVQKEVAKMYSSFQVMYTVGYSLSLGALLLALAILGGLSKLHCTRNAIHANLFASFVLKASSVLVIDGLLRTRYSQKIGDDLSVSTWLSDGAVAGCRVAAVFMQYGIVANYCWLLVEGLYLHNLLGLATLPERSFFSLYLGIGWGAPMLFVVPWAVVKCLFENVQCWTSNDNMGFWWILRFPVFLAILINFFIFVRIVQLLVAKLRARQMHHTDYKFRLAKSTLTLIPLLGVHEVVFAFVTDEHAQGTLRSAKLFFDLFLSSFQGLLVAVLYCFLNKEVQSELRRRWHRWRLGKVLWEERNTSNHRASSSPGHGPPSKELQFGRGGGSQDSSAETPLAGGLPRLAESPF
T2 sequence (P43220 24-463): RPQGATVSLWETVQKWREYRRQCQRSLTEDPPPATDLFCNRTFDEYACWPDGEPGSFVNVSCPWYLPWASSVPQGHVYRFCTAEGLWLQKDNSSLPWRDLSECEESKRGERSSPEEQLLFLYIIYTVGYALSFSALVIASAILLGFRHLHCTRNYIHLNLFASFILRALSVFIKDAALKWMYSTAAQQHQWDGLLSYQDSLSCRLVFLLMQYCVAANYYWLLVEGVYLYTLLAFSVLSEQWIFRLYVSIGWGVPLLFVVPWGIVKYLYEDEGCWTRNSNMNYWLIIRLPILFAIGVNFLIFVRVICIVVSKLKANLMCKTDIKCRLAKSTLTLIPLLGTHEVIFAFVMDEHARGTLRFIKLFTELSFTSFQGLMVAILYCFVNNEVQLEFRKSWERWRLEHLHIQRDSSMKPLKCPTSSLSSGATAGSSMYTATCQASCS

| Structure (SMILES) | Activity at Glucagon Receptor % Relative Activity ([1]; Table 3A) [%] | Activity at GLP-1 Receptor % Relative Activity ([2]; Table 3A) [%] | EC50 [2, 3] [pM] | EC50 [1, 4] [pM] | EC50 ([1]; Activity at Glucagon Receptor EC50 [nM], Table 6) [pM] | Activity at Glucagon Receptor % Relative Activity ([1]; Table 6) [%] | EC50 ([2]; Activity at GLP-1 Receptor EC50 [nM], Table 6) [pM] | Activity at GLP-1 Receptor % Relative Activity ([2]; Table 6) [%] |
| --- | --- | --- | --- | --- | --- | --- | --- | --- |
| CCCCCCCCCCCCCCCC(=O)N[C@@H](CCC(=O)N[C@@H](CCC(=O)NCCCC[C@H](NC(=O)[C@H](CC(=O)O)NC(=O)[C@H](CO)NC(=O)[C@@H](NC(=O)[C@H](Cc1ccccc1)NC(=O)[C@@H](NC(=O)CNC(=O)[C@H](CCC(N)=O)NC(=O)[C@@H](CO)NC(=O)[C@@H](N)Cc1c[nH]cn1)[C@@H](C)O)[C@@H](C)O)C(=O)N[C@@H](CO)C(=O)N[C@@H](CCCCN)C(=O)N[C@@H](Cc1ccc(O)cc1)C(=O)N[C@@H](CC(C)C)C(=O)N[C@@H](CC(=O)O)C(=O)NC(C)(C)C(=O)N[C@@H](CCCNC(=N)N)C(=O)N[C@@H](C)C(=O)N[C@@H](C)C(=O)N[C@@H](CCC(N)=O)C(=O)N[C@@H](CC(=O)O)C(=O)N[C@@H](Cc1ccccc1)C(=O)N[C@H](C(=O)N[C@@H](CCC(N)=O)C(=O)N[C@@H](Cc1c[nH]c2ccccc12)C(=O)N[C@@H](CC(C)C)C(=O)N[C@@H](CCSC)C(=O)N[C@@H](CC(=O)O)C(=O)N[C@H](C(N)=O)[C@@H](C)O)C(C)C)C(=O)O)C(=O)O [compound 44] (H-H[dS]QGTFTSDK([γGlu-γGlu-Palmitoyl])SKYLD[Aib]RAAQDFVQWLMDT-NH2; N-terminus assumed) | 661 | 524 |  |  |  |  |  |  |
| CCCCCCCCCCCCCCCC(=O)N[C@@H](CCC(=O)N[C@@H](CCC(=O)NCCCC[C@H](NC(=O)[C@H](CC(=O)O)NC(=O)[C@H](CO)NC(=O)[C@@H](NC(=O)[C@H](Cc1ccccc1)NC(=O)[C@@H](NC(=O)CNC(=O)[C@H](CCC(=O)O)NC(=O)C(C)(C)NC(=O)[C@@H](N)Cc1c[nH]cn1)[C@@H](C)O)[C@@H](C)O)C(=O)N[C@@H](CO)C(=O)N[C@@H](CCCCN)C(=O)N[C@@H](Cc1ccc(O)cc1)C(=O)N[C@@H](CC(C)C)C(=O)N[C@@H](CC(=O)O)C(=O)NC(C)(C)C(=O)N[C@@H](CCCNC(=N)N)C(=O)N[C@@H](C)C(=O)N[C@@H](C)C(=O)N[C@@H](CCC(N)=O)C(=O)N[C@@H](CC(=O)O)C(=O)N[C@@H](Cc1ccccc1)C(=O)N[C@H](C(=O)N[C@@H](CCC(N)=O)C(=O)N[C@@H](Cc1c[nH]c2ccccc12)C(=O)N[C@@H](CC(C)C)C(=O)N[C@@H](CCSC)C(=O)N[C@@H](CC(=O)O)C(=O)N[C@H](C(N)=O)[C@@H](C)O)C(C)C)C(=O)O)C(=O)O [compound 45] (H-H[Aib]EGTFTSDK([γGlu-γGlu-Palmitoyl])SKYLD[Aib]RAAQDFVQWLMDT-NH2; N-terminus assumed) | 75 | 759 | 3 |  |  |  |  |  |
| CCCCCCCCCCCCCCCC(=O)N[C@@H](CCC(=O)N[C@@H](CCC(=O)NCCCC[C@H](NC(=O)[C@H](CC(=O)O)NC(=O)[C@H](CO)NC(=O)[C@@H](NC(=O)[C@H](Cc1ccccc1)NC(=O)[C@@H](NC(=O)CNC(=O)[C@H](CCC(N)=O)NC(=O)C(C)(C)NC(=O)[C@@H](N)Cc1c[nH]cn1)[C@@H](C)O)[C@@H](C)CC)C(=O)N[C@@H](CO)C(=O)N[C@@H](CCCCN)C(=O)N[C@@H](Cc1ccc(O)cc1)C(=O)N[C@@H](CC(C)C)C(=O)N[C@@H](CC(=O)O)C(=O)NC(C)(C)C(=O)N[C@@H](CCCNC(=N)N)C(=O)N[C@@H](C)C(=O)N[C@@H](C)C(=O)N[C@@H](CCC(N)=O)C(=O)N[C@@H](CC(=O)O)C(=O)N[C@@H](Cc1ccccc1)C(=O)N[C@H](C(=O)N[C@@H](CCC(N)=O)C(=O)N[C@@H](Cc1c[nH]c2ccccc12)C(=O)N[C@@H](CC(C)C)C(=O)N[C@@H](CCSC)C(=O)N[C@@H](CC(=O)O)C(=O)N[C@H](C(=O)O)[C@@H](C)O)C(C)C)C(=O)O)C(=O)O [compound 46] | 2800 | 4.9 |  |  |  |  |  |  |
| CCCCCCCCCCCCCCCC(=O)N[C@@H](CCC(=O)N[C@@H](CCC(=O)NCCCC[C@H](NC(=O)[C@H](CC(=O)O)NC(=O)[C@H](CO)NC(=O)[C@@H](NC(=O)[C@H](Cc1ccccc1)NC(=O)[C@@H](NC(=O)CNC(=O)[C@H](CCC(N)=O)NC(=O)C(C)(C)NC(=O)[C@@H](N)Cc1c[nH]cn1)[C@@H](C)O)[C@@H](C)O)C(=O)N[C@@H](CO)C(=O)N[C@@H](CCCCN)C(=O)N[C@@H](Cc1ccc(O)cc1)C(=O)N[C@@H](CC(C)C)C(=O)N[C@@H](CCC(=O)O)C(=O)NC(C)(C)C(=O)N[C@@H](CCCNC(=N)N)C(=O)N[C@@H](C)C(=O)N[C@@H](C)C(=O)N[C@@H](CCC(N)=O)C(=O)N[C@@H](CC(=O)O)C(=O)N[C@@H](Cc1ccccc1)C(=O)N[C@H](C(=O)N[C@@H](CCC(N)=O)C(=O)N[C@@H](Cc1c[nH]c2ccccc12)C(=O)N[C@@H](CC(C)C)C(=O)N[C@@H](CCSC)C(=O)N[C@@H](CC(=O)O)C(=O)N[C@H](C(N)=O)[C@@H](C)O)C(C)C)C(=O)O)C(=O)O [compound 48] (H-H[Aib]QGTFTSDK([γGlu-γGlu-Palmitoyl])SKYLE[Aib]RAAQDFVQWLMDT-NH2; N-terminus assumed) | 1194 | 384 | 6 | 3 |  |  |  |  |

Further lines, results first:

| Activity at Glucagon Receptor % Relative Activity ([1]; Table 3A) [%] | Activity at GLP-1 Receptor % Relative Activity ([2]; Table 3A) [%] | EC50 [2, 3] [pM] | EC50 [1, 4] [pM] | EC50 ([1]; Activity at Glucagon Receptor EC50 [nM], Table 6) [pM] | Activity at Glucagon Receptor % Relative Activity ([1]; Table 6) [%] | EC50 ([2]; Activity at GLP-1 Receptor EC50 [nM], Table 6) [pM] | Activity at GLP-1 Receptor % Relative Activity ([2]; Table 6) [%] | Structure (SMILES) |
| --- | --- | --- | --- | --- | --- | --- | --- | --- |
| 511 | 375 | 6 |  |  |  |  |  | CCCCCCCCCCCCCCCC(=O)N[C@@H](CCC(=O)N[C@@H](CCC(=O)NCCCC[C@H](NC(=O)[C@H](CC(=O)O)NC(=O)[C@H](CO)NC(=O)[C@@H](NC(=O)[C@H](Cc1ccccc1)NC(=O)[C@@H](NC(=O)CNC(=O)[C@H](CCC(N)=O)NC(=O)C(C)(C)NC(=O)[C@@H](N)Cc1c[nH]cn1)[C@@H](C)O)[C@@H](C)O)C(=O)N[C@@H](CO)C(=O)N[C@@H](CCCCN)C(=O)N[C@@H](Cc1ccc(O)cc1)C(=O)N[C@@H](CC(C)C)C(=O)N[C@@H](CC(=O)O)C(=O)NC(C)(C)C(=O)N[C@@H](CCCNC(=N)N)C(=O)N[C@@H](C)C(=O)N[C@@H](C)C(=O)N[C@@H](CCC(N)=O)C(=O)N[C@@H](CC(=O)O)C(=O)N[C@@H](Cc1ccccc1)C(=O)N[C@H](C(=O)N[C@@H](CCC(N)=O)C(=O)N[C@@H](Cc1c[nH]c2ccccc12)C(=O)N[C@@H](CC(C)C)C(=O)N[C@@H](CC(C)C)C(=O)N[C@@H](CC(=O)O)C(=O)N[C@H](C(N)=O)[C@@H](C)O)C(C)C)C(=O)O)C(=O)O [compound 49] |
| 1000 | 500 | 5 | 2 |  |  |  |  | CCCCCCCCCCCCCCCC(=O)N[C@@H](CCC(=O)N[C@@H](CCC(=O)NCCCC[C@H](NC(=O)[C@H](CC(=O)O)NC(=O)[C@H](CO)NC(=O)[C@@H](NC(=O)[C@H](Cc1ccccc1)NC(=O)[C@@H](NC(=O)CNC(=O)[C@H](CCC(N)=O)NC(=O)C(C)(C)NC(=O)[C@@H](N)Cc1c[nH]cn1)[C@@H](C)O)[C@@H](C)O)C(=O)N[C@@H](CO)C(=O)N[C@@H](CCCCN)C(=O)N[C@@H](Cc1ccc(O)cc1)C(=O)N[C@@H](CC(C)C)C(=O)N[C@@H](CC(=O)O)C(=O)N[C@@H](CCC(=O)O)C(=O)N[C@@H](CCCNC(=N)N)C(=O)N[C@@H](C)C(=O)N[C@@H](C)C(=O)N[C@@H](CCC(N)=O)C(=O)N[C@@H](CC(=O)O)C(=O)N[C@@H](Cc1ccccc1)C(=O)N[C@H](C(=O)N[C@@H](CCC(N)=O)C(=O)N[C@@H](Cc1c[nH]c2ccccc12)C(=O)N[C@@H](CC(C)C)C(=O)N[C@@H](CCSC)C(=O)N[C@@H](CC(=O)O)C(=O)N[C@H](C(N)=O)[C@@H](C)O)C(C)C)C(=O)O)C(=O)O [compound 50] |
| 314 | 949 | 3.9 | 3.5 | 4 | 314 | 4 | 949 | CCCCCCCCCCCCCCCC(=O)N[C@@H](CCC(=O)NCCCC[C@H](NC(=O)[C@H](CC(=O)O)NC(=O)[C@H](CO)NC(=O)[C@@H](NC(=O)[C@H](Cc1ccccc1)NC(=O)[C@@H](NC(=O)CNC(=O)[C@H](CCC(N)=O)NC(=O)[C@@H](CO)NC(=O)[C@@H](N)Cc1c[nH]cn1)[C@@H](C)O)[C@@H](C)O)C(=O)N[C@@H](CO)C(=O)N[C@@H](CCCCN)C(=O)N[C@@H](Cc1ccc(O)cc1)C(=O)N[C@@H](CC(C)C)C(=O)N[C@@H](CC(=O)O)C(=O)N[C@@H](CCC(=O)O)C(=O)N[C@@H](CCCNC(=N)N)C(=O)N[C@@H](C)C(=O)N[C@@H](C)C(=O)N[C@@H](CCC(N)=O)C(=O)N[C@@H](CC(=O)O)C(=O)N[C@@H](Cc1ccccc1)C(=O)N[C@H](C(=O)N[C@@H](CCC(N)=O)C(=O)N[C@@H](Cc1c[nH]c2ccccc12)C(=O)N[C@@H](CC(C)C)C(=O)N[C@@H](CC(C)C)C(=O)N[C@@H](CC(=O)O)C(=O)N[C@H](C(N)=O)[C@@H](C)O)C(C)C)C(=O)O [compound 51] |
| 379 | 1276 | 2.9 | 2.9 |  |  |  |  | CCCCCCCCCCCCCCCC(=O)N[C@@H](CCC(=O)NCCCC[C@H](NC(=O)[C@H](CC(=O)O)NC(=O)[C@H](CO)NC(=O)[C@@H](NC(=O)[C@H](Cc1ccccc1)NC(=O)[C@@H](NC(=O)CNC(=O)[C@H](CCC(N)=O)NC(=O)C(C)(C)NC(=O)[C@@H](N)Cc1c[nH]cn1)[C@@H](C)O)[C@@H](C)O)C(=O)N[C@@H](CO)C(=O)N[C@@H](CCCCN)C(=O)N[C@@H](Cc1ccc(O)cc1)C(=O)N[C@@H](CC(C)C)C(=O)N[C@@H](CC(=O)O)C(=O)N[C@@H](CCC(=O)O)C(=O)N[C@@H](CCC(N)=O)C(=O)N[C@@H](C)C(=O)N[C@@H](C)C(=O)N[C@@H](CCCCN)C(=O)N[C@@H](CCC(=O)O)C(=O)N[C@@H](Cc1ccccc1)C(=O)N[C@H](C(=O)N[C@@H](C)C(=O)N[C@@H](Cc1c[nH]c2ccccc12)C(=O)N[C@@H](CC(C)C)C(=O)N[C@@H](CC(C)C)C(=O)N[C@@H](CC(=O)O)C(=O)N[C@H](C(N)=O)[C@@H](C)O)[C@@H](C)CC)C(=O)O [compound 52] |
